Experiments:
[1] = test system: T lymphocyte proliferation (C57BI/6 spleen cells with irradiated BALB/c spleen cells); assay: Mixed lymphocyte reaction (MLR), one-way; type: cell-based, mice; conditions: Mus musculus, T-lymphocyte; read-out: MLR IC50
Description: Admixture of murine spleen cells from two different inbred strains of mice induces proliferation of T lymphocytes. The magnitude of T cell proliferation depends on the extent of disparity in the major histocompatibility antigens between the two strains. Splenic T lymphocytes from both strains proliferate due to alloantigen recognition, a process for which the interaction of ICAM-1 on antigen-presenting cells with LFA-1 on lymphocytes is necessary. The ability of antagonists to inhibit T lymphocyte proliferation following recognition of alloantigens was assessed in a one-way MLR, where cells from one strain were irradiated to permit measurement of the proliferative response of cells from the other strain. Spleen cells were washed three times in tissue culture medium (TCM; see below). […] One hundred microliters of serial dilutions of antagonists or TCM were added to the spleen cell mixture. The total volume in each well was 200 μL. TCM was RPMI1640 containing 10% heat-inactivated fetal bovine serum, […] L-glutamine, 100 Units/ml each of penicillin and streptomycin and 5×10^−5 M 2-mercaptoethanol. Dilutions of antagonists were prepared in TCM. Plates were incubated in 5% CO2 for 3 days. On the third day, 0.5 μCi of tritiated thymidine (10 μCi/mL) was added to all the wells. Cells were harvested 6 h later on a 96-well plate harvester and the amount of tritiated thymidine incorporated was assessed in a liquid scintillation counter.

[2] = biological target: T1, LFA-1 binding to immobilized ICAM-1 (Homo sapiens, UniProt P05107+P20701); assay: LFA-1/ICAM-1 protein-protein assay (solid-phase ELISA); conditions: read-out: LFA-1/ICAM-1 Protein-Protein Assay IC50
T1 construct: made in house; host or cells: transfected 293 cells (LFA-1)
T1 sequence (P20701 26-1170): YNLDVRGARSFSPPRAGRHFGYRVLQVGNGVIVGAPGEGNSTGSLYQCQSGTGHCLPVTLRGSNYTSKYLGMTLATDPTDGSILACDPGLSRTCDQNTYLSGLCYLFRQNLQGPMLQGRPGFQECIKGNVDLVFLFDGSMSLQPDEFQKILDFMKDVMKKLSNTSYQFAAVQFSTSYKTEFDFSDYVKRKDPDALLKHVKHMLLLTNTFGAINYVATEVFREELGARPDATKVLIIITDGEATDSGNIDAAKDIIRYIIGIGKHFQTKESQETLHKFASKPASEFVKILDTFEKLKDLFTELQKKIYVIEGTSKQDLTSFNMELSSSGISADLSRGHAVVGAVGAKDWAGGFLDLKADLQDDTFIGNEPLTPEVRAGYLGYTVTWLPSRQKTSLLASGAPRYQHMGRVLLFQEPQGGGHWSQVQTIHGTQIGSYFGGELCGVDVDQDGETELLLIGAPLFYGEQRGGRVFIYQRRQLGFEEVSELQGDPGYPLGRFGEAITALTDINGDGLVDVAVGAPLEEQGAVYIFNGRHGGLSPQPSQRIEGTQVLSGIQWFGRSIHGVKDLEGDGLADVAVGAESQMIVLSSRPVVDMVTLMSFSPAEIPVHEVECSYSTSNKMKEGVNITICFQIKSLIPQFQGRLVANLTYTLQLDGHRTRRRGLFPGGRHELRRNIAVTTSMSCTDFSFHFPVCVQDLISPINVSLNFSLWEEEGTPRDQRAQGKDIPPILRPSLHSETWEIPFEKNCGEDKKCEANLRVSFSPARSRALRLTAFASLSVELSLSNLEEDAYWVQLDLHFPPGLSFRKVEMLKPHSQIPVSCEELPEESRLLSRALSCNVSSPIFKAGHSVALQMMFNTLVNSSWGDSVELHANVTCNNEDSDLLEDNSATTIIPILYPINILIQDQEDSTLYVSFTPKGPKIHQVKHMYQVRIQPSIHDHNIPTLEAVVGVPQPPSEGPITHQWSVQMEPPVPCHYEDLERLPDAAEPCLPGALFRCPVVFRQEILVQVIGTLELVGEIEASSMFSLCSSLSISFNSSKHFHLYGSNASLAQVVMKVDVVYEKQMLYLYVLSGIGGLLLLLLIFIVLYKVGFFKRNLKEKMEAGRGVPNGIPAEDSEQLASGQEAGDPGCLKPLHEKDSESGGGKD
T1 sequence (P05107 23-769): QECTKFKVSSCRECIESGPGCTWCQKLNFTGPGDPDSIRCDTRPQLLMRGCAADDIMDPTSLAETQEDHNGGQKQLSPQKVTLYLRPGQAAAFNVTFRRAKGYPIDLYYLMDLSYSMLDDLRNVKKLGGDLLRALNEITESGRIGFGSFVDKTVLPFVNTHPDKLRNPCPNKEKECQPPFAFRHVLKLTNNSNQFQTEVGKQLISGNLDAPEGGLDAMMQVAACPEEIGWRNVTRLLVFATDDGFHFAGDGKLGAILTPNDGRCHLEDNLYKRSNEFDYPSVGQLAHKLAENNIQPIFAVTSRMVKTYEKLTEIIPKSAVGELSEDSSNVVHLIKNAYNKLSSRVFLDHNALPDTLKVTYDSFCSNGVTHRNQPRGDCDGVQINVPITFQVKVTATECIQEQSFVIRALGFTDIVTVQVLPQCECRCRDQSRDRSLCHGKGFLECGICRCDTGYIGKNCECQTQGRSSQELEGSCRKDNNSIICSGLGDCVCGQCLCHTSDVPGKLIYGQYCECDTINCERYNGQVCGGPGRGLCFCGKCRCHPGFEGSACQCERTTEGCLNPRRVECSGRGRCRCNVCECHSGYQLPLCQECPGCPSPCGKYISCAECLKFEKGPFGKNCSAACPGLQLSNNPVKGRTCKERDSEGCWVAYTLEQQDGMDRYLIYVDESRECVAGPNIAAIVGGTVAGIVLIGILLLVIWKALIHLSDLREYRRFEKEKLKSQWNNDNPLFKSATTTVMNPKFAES
Outline: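 Human 5dICAM-Ig (ICAM-1 extracellular domain–IgG Fc) coated on plates; membrane-bound LFA-1 from transfected 293 cells (280 ng/mL) added with compound in Mn2+-containing HEPES buffer pH 7.2, 2 h at 37° C. Bound LFA-1 detected via anti-β2 antibody and HRP/TMB at 450 nm; IC50s determined.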

[3] = test system: Mac-1 and LFA-1-mediated neutrophil binding to immobilized ICAM-1; assay: Neutrophil (Mac-1 and LFA-1)/ICAM-1 cell-based screening assay; conditions: human neutrophils
Method: Both Mac-1 and LFA-1 are expressed on the cell surface of neutrophils. The ability of antagonists to inhibit Mac-1 and LFA-1-mediated neutrophil binding to immobilized ICAM-1 was quantitated by a cell based assay. Typically, fusion protein consisting of the entire extracellular domain of human ICAM-1 and the Fc domain of human IgG (5dICAM-Ig) was coated onto 96 well microtiter plates (1 μg in 100 μL TBS) overnight at 4° C. The plates were then blocked with 150 μL of 10% PVP in TBS for 1 h at 37° C. Plates were washed 3 times (150 μL each) with TBS. Human neutrophils were purified from whole blood from healthy volunteers using LSM (ICN). Cells (8×10^6/mL) were fluorescently labeled with 6-carboxyfluorescein (100 μg/mL) for 40 min in IMDM/1 mM MgCl2/1.2 mM CaCl2 as described in Example 287. Cells (8×10^6/mL) were stimulated with f-Met-Leu-Phe (10 μM) for 5 min at room temperature just prior to being used in the assay, and diluted to 2×10^6 cells/mL with RPMI/0.05% BSA/0.2 mM MnCl2. Stock solutions (10 mM) of test compounds were diluted to 2.5 mM with DMSO. A series of 1:4 dilutions in DMSO were performed to achieve a concentration range of 38.2 nM-2.5 mM. Each sample was further diluted 50-fold with RPMI/0.05% BSA/0.2 mM MnCl2. Equal volumes of labeled cells were then added to assay tubes containing diluted compound. Final concentrations of compound tested in the assay ranged from 0.38 nM-25 μM with a cell concentration of 1×10^6 per mL. Cells were incubated for 10 min at 37° C. with gentle shaking, then dispensed (100 μL per well) onto ICAM-1 coated plates and incubated for 30 min at 37° C./5% CO2. Unbound cells were washed and plates were read on a Cytofluor™ 2300 (Millipore) as described in Example 384.

## Cc1cc(C(=O)NCc2cccc(O)c2)cc(Cl)c1C(=O)N[C@@H](CNC(=O)c1cc(O)cc(O)c1)C(=O)O [Example 341, N-[2-chloro-4-[[[(3-hydroxyphenyl)methyl]amino]carbonyl]-6-methylbenzoyl]-3-(3,5-dihydroxybenzoylamino)-L-alanine]
[1]
  IC50: 3 nM
[2]
  IC50: 0.3 nM
[3]
  IC50: 0.3 nM

— patent publication US20040006236A1, “Diaminopropionic acid derivatives” (priority 1999, published 2004)
